According to patent US7666437B2, “Intranasal vaccine for use against disease caused by enterotoxigenic Escherichia coli” (Universidad Nacional Autonoma de Mexico, priority 2005, dated 2010):
Values joined by “and” are separate entries in the source; they are usually repeats but may differ in a detail not shown here. Identical values can stand only once. Ends that are not written are not given here.

Tests used:
strain H10407 of ETEC = tested on: strain H10407 of ETEC; set-up: species or system enterotoxigenic Escherichia coli; settings: in vivo
T CD4+ lymphocytes = tested on: T CD4+ lymphocytes; set-up: species or system BALB/c mice; settings: mouse, in vivo
T CD8+ lymphocytes = tested on: T CD8+ lymphocytes; set-up: species or system BALB/c mice; settings: mouse, in vivo
IL-4 = tested on: IL-4; set-up: species or system BALB/c mice; settings: mouse, in vivo
IL-10 = tested on: IL-10; set-up: species or system BALB/c mice; settings: mouse, in vivo
[1] = tested on: children's sera after natural infection; format: binding
Dynamic light scattering = format: physicochemical; settings: 1 mg/ml in 10 mm PBS pH 7.4; physiological conditions of pH and temperature
Description: Dynamic light scattering: One milliliter of 1 mg/ml CLE diluted in 10 mm PBS, pH 7.4 was used to evaluate the dynamic light scattering at different temperatures of 5, 15, 25, 35 and 37° C. Hydrodynamic diameter of CLE was determined using the Zed ziser nano series (Mc Malvern, USA).

IFN-gamma = tested on: IFN-gamma; set-up: species or system BALB/c mice; settings: mouse, in vivo

CLE: 20 amino acid common linear epitope of ETEC CFA/I fimbria, amino acids 33 to 52, with terminal cysteine in position 53 (YSPASKTFESYRVMTQVHTC; not fully specified; also: disulfide at Cys20, partner not given here; listed as Escherichia coli)
positive coprocultures (excretion of ETEC) (strain H10407 of ETEC): 100% and 50%
presence of diarrhea after the infection with ETEC (strain H10407 of ETEC): change of consistency of the feces
increase of T CD4+ lymphocytes with regard to control group (T CD4+ lymphocytes): about 2 fold
response of T CD4+ lymphocytes (T CD4+ lymphocytes): slightly higher
response of T CD8+ lymphocytes (T CD8+ lymphocytes): slightly higher
increase of IL-4 production compared to the control group (IL-4): about 2.6 times
increase of IL-10 compared to the control group (IL-10): 0.8 times
children's sera that recognized the epitope [1]: 100%
oligomeric structures formed (hydrodynamic diameter) (Dynamic light scattering): trimeric structures

CTB
positive coprocultures (excretion of ETEC) (strain H10407 of ETEC): 100% and 50%
presence of diarrhea after the infection with ETEC (strain H10407 of ETEC): inconsistency of feces up to the third day
increase of T CD4+ lymphocytes relative to the control (T CD4+ lymphocytes): 0.4 times
response of T CD8+ lymphocytes (T CD8+ lymphocytes): very similar to the control group
response of INF-gamma (IFN-gamma): considerable response
